Data set [1] deals with MDA-MB-231 cells. In words: In vitro anti-proliferative activity assay (MTT). Type of data set: cell-based. Particulars: Homo sapiens, 48 h incubation. On the procedure: Cells lines were maintained as monolayers in Dulbecco’s Modified Eagle’s Medium (DMEM) supplemented with 10% FBS, 2 mM L-glutamine, 100 U/ml penicillin and 100 µg/ml streptomycin sulfate. Cells were sub-cultured with trypsine/EDTA solution, counted with haemocytometer and plated onto 96-well plates (5000 cells/well) and left overnight to form a semi-confluent monolayer. […] DMSO (100 µl/well) was added to dissolve the formazan crystals with shaking for 10 min after which the absorbance was read at 590 nm against no cell blanks on a FLuo Star Optima microplate reader (BMG Technologies, Germany). Cell proliferation was calculated comparing the OD values of the DMSO control wells and those of the samples represented as % proliferation to the control.
The in vitro anti-proliferative activity of the newly synthesized spirooxindoles 6a–p was examined against TNBC MDA-MB-231 cells. This assay was performed utilizing the 3–(4,5-dimethylthiazol-2-yl)-2,5-diphenyltetrazolium bromide (MTT) colorimetric assay as described by Mosmann[18]. Adriamycin was included in this assay as a reference drug.

In a further data set the test system is WI-38 cells. Kind of data set: In vitro cytotoxic activity, WI-38 cells (MTT). Type of data set: cell-based, human. On the procedure: WI-38 cells ([…]), were obtained from American Type Culture Collection. The cells were propagated in DMEM supplemented with 10% heat-inactivated FBS (Hyclone), 10 μg/ml of insulin (Sigma), and 1% penicillin-streptomycin. All of the other chemicals and reagents were from Sigma, or Invitrogen. Cytotoxicity was determined using MTT assay following a reported procedure.

Another data set has as its system caspase-3. Kind of data set: Active caspase-3 level in MDA-MB-231 cells (ELISA). Particulars: MDA-MB-231 cells treated with compound at its IC50 concentration. Type of data set: cell-based. As for the experimental part:
(§1) The levels of the apoptotic markers (Bax, caspase-3) as well as the anti-apoptotic marker (Bcl-2) were assessed using ELISA colorimetric kits per the manufacturer’s protocol and referring to reported instructions[21]^,[22].
Caspases, a family of cysteineaspartic proteases, are the crucial apoptosis mediators that provide essential links in cell regulatory networks controlling cell death. Caspase-3 is the key executioner caspase which modifies proteins ultimately responsible for apoptosis.

For a further data set, the system named is Bax. In words: Bax level in MDA-MB-231 cells (ELISA). The data set is classed as cell-based. The conditions noted are these: MDA-MB-231 cells treated with compound at its IC50 concentration. On the procedure: as §1
(§2) Bcl-2 family comprises a group of crucial regulatory factors in apoptosis that finely tune the apoptotic switch on/off mechanism. Based on their functional and structural criteria, the members are divided into two major classes; group I proteins that are anti-apoptotic and group II proteins that are apoptotic. Group I anti-apoptotic proteins exert their function by inhibiting group II apoptotic proteins through simply binding to them. Group I proteins bind selectively to the active conformations of group II proteins to prevent them from being inserted into the mitochondria and thus cease the release of pro-apoptotic factors such as cytochrome c, ultimately aborting apoptosis. Thus, the inhibition of group I proteins and/or the activation of group II proteins can successfully induce apoptosis.

A further data set concerns Bcl-2. In words: Bcl-2 level in MDA-MB-231 cells (ELISA). Type of data set: cell-based. Particulars: MDA-MB-231 cells treated with compound at its IC50 concentration. As for the experimental part: as §1, §2
The target of a further data set is T1, EGFR (Homo sapiens, UniProt P00533).
T1 construct: purchased BPS Biosciences 40321
T1 sequence (P00533 25-1210): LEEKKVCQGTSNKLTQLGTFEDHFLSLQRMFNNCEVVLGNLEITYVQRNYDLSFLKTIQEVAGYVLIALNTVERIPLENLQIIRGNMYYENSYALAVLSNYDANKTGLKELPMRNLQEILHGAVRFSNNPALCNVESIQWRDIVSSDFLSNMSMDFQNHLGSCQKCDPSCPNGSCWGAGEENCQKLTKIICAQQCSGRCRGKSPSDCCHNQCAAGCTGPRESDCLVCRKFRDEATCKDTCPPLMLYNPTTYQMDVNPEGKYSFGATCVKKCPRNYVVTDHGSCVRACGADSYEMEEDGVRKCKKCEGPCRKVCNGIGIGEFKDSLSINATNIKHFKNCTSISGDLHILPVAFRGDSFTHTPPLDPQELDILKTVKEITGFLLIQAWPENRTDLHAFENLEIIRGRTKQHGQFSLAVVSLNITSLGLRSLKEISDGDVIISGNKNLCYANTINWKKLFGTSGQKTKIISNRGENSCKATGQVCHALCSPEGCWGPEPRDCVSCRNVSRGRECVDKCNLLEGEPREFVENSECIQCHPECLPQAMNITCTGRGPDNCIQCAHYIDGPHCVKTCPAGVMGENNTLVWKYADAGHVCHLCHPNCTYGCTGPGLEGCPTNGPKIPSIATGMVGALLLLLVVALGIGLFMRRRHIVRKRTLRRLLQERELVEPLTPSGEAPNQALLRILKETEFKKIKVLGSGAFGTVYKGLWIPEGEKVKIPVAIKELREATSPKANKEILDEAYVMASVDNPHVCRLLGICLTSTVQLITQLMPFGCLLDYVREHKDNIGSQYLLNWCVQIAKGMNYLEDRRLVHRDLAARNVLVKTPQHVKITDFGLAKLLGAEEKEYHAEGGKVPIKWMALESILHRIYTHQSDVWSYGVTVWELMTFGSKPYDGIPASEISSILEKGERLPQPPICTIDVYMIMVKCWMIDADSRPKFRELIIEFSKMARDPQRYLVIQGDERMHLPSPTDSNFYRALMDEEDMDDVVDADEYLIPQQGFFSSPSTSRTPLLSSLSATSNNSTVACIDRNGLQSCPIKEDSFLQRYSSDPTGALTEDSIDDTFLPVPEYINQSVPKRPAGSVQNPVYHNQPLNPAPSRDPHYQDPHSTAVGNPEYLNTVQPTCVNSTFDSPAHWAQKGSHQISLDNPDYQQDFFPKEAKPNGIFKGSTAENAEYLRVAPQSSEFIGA
In words: EGFR kinase ELISA assay. The data set is classed as biochemical. Particulars: colorimetric ELISA, mean ± SD of three separate experiments. On the procedure:
Percent inhibition was calculated by the comparison of compounds treated to control incubations.
Erlotinib, a clinically used EGFR inhibitor, was taken as the reference drug.

The subject of data set [2] is MDA-MB-231 cells. In words: Annexin V-FITC apoptosis assay. The data set is classed as cell-based. The conditions noted are these: MDA-MB-231, 24 h. On the procedure: Phosphatidylserine externalization was measured using Annexin V-FITC/PI apoptosis detection kit (BD Biosciences, San Jose, CA) according to the manufacturer's instructions, as reported earlier. MDA-MB-231cells were treated with 6e at defined concentrations for 24 h.
Externalization of the phospholipid phosphatidylserine at the cell membrane is a one of the well-recognized hallmarks of cells going into apoptosis[17]^,[29].

The test system of data set [3] is MDA-MB-231 cells. Kind of data set: Cell cycle analysis (DNA flow cytometry).
Method: Then cells were washed twice with ice-cold phosphate buffered saline (PBS). Subsequently, the treated cells were collected by centrifugation, fixed in ice-cold 70% (v/v) ethanol, washed with PBS, re-suspended with 0.1 mg/mL RNase, stained with 40 mg/mL PI, and analyzed by flow cytometry using FACS Calibur (Becton Dickinson, BD, USA). The cell cycle distributions were calculated using CellQuest software (Becton Dickinson).
The subject of the next data set is tsFT210 cells. The arrangement: method as in ref 7 = [7]; 7 Cui C-B , Kakeya H , Osada H. Novel mammalian cell cycle inhibitors, spirotryprostatins A and B, produced by Aspergillus fumigatus , which inhibit mammalian cell cycle at G2/M phase . Tetrahedron 19. Particulars: read-out: IC50, inhibition of cell cycle progression at G2/M phase; cited from earlier work.

Data set [4] relates to MDA-MB-231 cancer cell line. The conditions noted are these: TNBC; read-out: IC50, cytotoxic activity MDA-MB-231; cited from earlier work.
Another data set has as its system MCF-7. The arrangement: method as in PMID 24747063. Particulars: ordinary breast cancer; read-out: IC50, cytotoxic activity MCF-7; cited from earlier work.
Another data set has as its system MDA cell lines. Further details: method as in ref 10 = [10]; 10 Jiang X , Sun Y , Yao J , et al Core scaffold‐inspired concise synthesis of chiral spirooxindole‐pyranopyrimidines with broad‐spectrum anticancer potency . Adv Synth Catal 2012; 354 : 917 – 25 . Particulars: read-out: IC50, cytotoxicity against MDA cell lines; cited from earlier work.

Read-outs that look alike come from different tables or passages of the source.

`N#CC1=C(c2ccccc2)Nc2c(c(-c3cccs3)nn2-c2ccccc2)C12C(=O)Nc1ccccc12` (stereo not drawn) [Compound 6a, 2-Oxo-1',6'-diphenyl-3'-(thiophen-2-yl)-1',7'-dihydrospiro[indoline-3,4'-pyrazolo[3,4-b]pyridine]-5'-carbonitrile] showed an IC50 in the data set on MDA-MB-231 cells [1] of 6.7 µM. The IC50 in the data set with WI-38 cells (WI-38, MTT assay, human normal lung fibroblast cell line, read-out: IC50 (µM) WI-38) worked out at 78.1 µM. For the same compound, the “Selectivity Index” value in the data set with WI-38 cells (WI-38 versus MDA-MB-231) turned out to be 11.7. Moreover, the “Caspase-3” value in the data set on caspase-3 was found to be 0.3501 ng/mL. Moreover, in the data set with Bax, the “Bax” value came out at 405.5 pg/mL and the “Bax, number of folds of control” value was 506.8 folds. In the data set with Bcl-2, the “Bcl-2” value was 0.3958 ng/mL; the “Bcl-2, number of folds of control” value came to 0.147 folds; the “Bcl-2 expression compared to basal level in the control” value is listed as 14.7%. Moreover, the IC50 against EGFR stood at 0.43 ± 0.04 µM.

In the data set on MDA-MB-231 cells [1], `N#CC1=C(c2ccccc2)Nc2c(c(-c3cccs3)nn2-c2ccccc2)C12C(=O)Nc1ccc(Cl)cc12` (stereo not drawn) [Compound 6e, 5-Chloro-2-oxo-1',6'-diphenyl-3'-(thiophen-2-yl)-1',7'-dihydrospiro[indoline-3,4'-pyrazolo[3,4-b]pyridine]-5'-carbonitrile] gave an IC50 of 6.4 µM. The IC50 with WI-38 cells (Homo sapiens, WI-38, read-out: IC50 (µM) WI-38) was found to be 43.2 µM. Also, in the data set with caspase-3, the “Caspase-3” value worked out at 0.4058 ng/mL and the “Caspase-3, number of folds of control” value is approximately 36.5 folds. For the same compound, in the data set on Bax, the “Bax” value came out at 353.7 pg/mL and the “Bax, number of folds of control” value came to 442.1 folds. In the data set with Bcl-2, the “Bcl-2” value came out at 0.7449 ng/mL and the “Bcl-2, number of folds of control” value is recorded as 0.276 folds. Moreover, the “Annexin V-FITC positive apoptotic cells, folds compared to control” value with MDA-MB-231 cells [2] was “about 32.8 folds”. In addition, in the data set with MDA-MB-231 cells [2] (control 1.34%), the “Percent of annexin V-FITC positive apoptotic cells (UR + LR)” value is listed as 44%. In addition, the IC50 against EGFR turned out to be 0.15 ± 0.02 µM. Besides, in the data set with MDA-MB-231 cells [3], the “Cells in G2-M phase” value came out at 19.1% and the “Change in the S phase” value is listed as “no significant change”.

For `CC(C)=CC1N2C(=O)C3CCCN3C(=O)C2=CC12C(=O)Nc1ccccc12` (stereo not drawn) [Spirotryprostatins B], in the data set on tsFT210 cells, the IC50 is 14 µM.

For the compound `CC(C)(C)C1=NN(c2ccccc2)C2(C(=O)Nc3c(Cl)cccc32)C1c1ccccc1` (stereo not drawn) [compound (iii)], the results for the IC50 (in [4]; with MCF-7) were 6.4 µM and 8.6 µM, respectively.

For `CC(=O)n1c(C)nc2c(c1=O)[C@@]1(C(=O)Nc3c(F)cccc31)c1c(c3cc(F)ccc3oc1=O)O2` [derivative (ii)], the IC50 in the data set with MDA cell lines was 6.9 µM.

The values above are taken from publication PMC6009943, “One-pot three-component synthesis of novel spirooxindoles with potential cytotoxic activity against triple-negative breast cancer MDA-MB-231 cells” (Journal of Enzyme Inhibition and Medicinal Chemistry, 2017).
